Tests used:
[1] = test system: human peripheral blood mononuclear cells (PBMC); assay: PBMC cytotoxicity assay (CellTiter-Glo); format: cell-based; details: 2 days, pCC50
Method in brief: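 Human PBMC (50,000 cells/well) stimulated with IFN-γ 100 ng/ml and LPS 50 ng/ml were exposed to 11-point 3-fold compound dilutions for 2 days at 37 °C, 5% CO2. Viability read by CellTiter-Glo ATP luminescence and normalized to no-cell and stimulated-DMSO controls. XC50 derived by four-parameter fit.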

[2] = target: indoleamine 2, 3-dioxygenase (IDO1) (Homo sapiens, UniProt P14902); assay: IDO1 PBMC RapidFire MS assay (kynurenine detection by mass spectrometry); format: cell-based; design: to induce the expression of indoleamine 2, 3-dioxygenase (IDO1); host or cells: human PBMC stimulated with IFN-gamma and LPS; details: human PBMC stimulated with IFN-γ and LPS, 2 days, pIC50, read-out: PBMC PXC50 (converted)
indoleamine 2, 3-dioxygenase (IDO1), sequence (P14902 whole entry): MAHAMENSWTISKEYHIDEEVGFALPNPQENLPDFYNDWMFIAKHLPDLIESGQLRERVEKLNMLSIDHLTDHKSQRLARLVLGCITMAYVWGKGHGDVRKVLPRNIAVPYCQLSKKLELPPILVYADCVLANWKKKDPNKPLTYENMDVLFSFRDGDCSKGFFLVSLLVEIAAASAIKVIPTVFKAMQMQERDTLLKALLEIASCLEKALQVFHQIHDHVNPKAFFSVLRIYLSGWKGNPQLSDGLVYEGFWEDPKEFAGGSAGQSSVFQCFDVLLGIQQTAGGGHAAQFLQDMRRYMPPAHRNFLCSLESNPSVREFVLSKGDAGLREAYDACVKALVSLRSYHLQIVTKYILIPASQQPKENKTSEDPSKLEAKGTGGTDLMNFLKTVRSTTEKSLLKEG
Method in brief: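 PBMCs (50,000 cells/well) stimulated with IFN-γ 100 ng/ml plus LPS 50 ng/ml, treated with 11-point 3-fold compound series for 2 days at 37° C. Supernatant kynurenine measured by RapidFire MS, normalised to internal standard; parallel cytotoxicity by CellTiter-Glo luminescence; curves fitted for XC50.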

| Structure (SMILES) | IC50 [2] | PBMC TOX PXC50 [1] |
| --- | --- | --- |
| CC(=O)N1CCC(N(CC(C)C)c2ccc([C@H](C)CC(=O)O)cc2Nc2nc(C(F)(F)F)ns2)CC1 [Example 70, (R)-3-(4-((1-acetylpiperidin-4-yl) (isobutyl)amino)-3-((3-(trifluoromethyl)-1,2,4-thiadiazol-5-yl)amino)phenyl)butanoic Acid] | 3.16 nM | <5 |
| CO[C@H]1CC[C@@H](N(CC(C)C)c2ccc([C@H](C)CC(=O)O)cc2Nc2ccc(Cl)cn2)CC1 [Example 47, (R)-3-(3-((5-chloropyridin-2-yl)amino)-4-(isobutyl((1s,4S)-4-methoxycyclohexyl)amino)phenyl)butanoic Acid] | 0.794 nM | <5 |
| CO[C@H]1CC[C@H](N(CC(C)C)c2ccc([C@H](C)CC(=O)O)cc2Nc2nc(Cl)ns2)CC1 [Example 54, (R)-3-(3-((3-chloro-1,2,4-thiadiazol-5-yl)amino)-4-(isobutyl((1r,4R)-4-methoxycyclohexyl)amino)phenyl)butanoic Acid] | 2 nM | <5 |
| COC(=O)c1c[nH]c(Nc2cc([C@H](C)CC(=O)O)ccc2N(CC(C)C)[C@H]2CC[C@@H](OC)CC2)n1 [Example 46, (R)-3-(4-(isobutyl((1s,4s)-4-methoxycyclohexyl)amino)-3-((4-(methoxycarbonyl)-1H-imidazol-2-yl)amino)phenyl)butanoic Acid] | 1.58 nM | 5.2 |
| CC[C@H](CC(=O)O)c1ccc(N(CC(C)C)C2CCOCC2)c(Nc2n[nH]c(C3CC3)n2)c1 [Example 41, (R)-3-(3-((5-cyclopropyl-1H-1,2,4-triazol-3-yl)amino)-4-(isobutyl(tetrahydro-2H-pyran-4-yl)amino)phenyl)pentanoic Acid] | 7.94 nM | <5 |
| CC(C)CN(c1ccc(-c2ccccc2C(=O)O)cc1Nc1nc(C(F)(F)F)ns1)C1CC2(C1)CN(C(=O)OC(C)(C)C)C2 [Example 97, 4′-((2-(tert-butoxycarbonyl)-2-azaspiro[3.3]heptan-6-yl) (isobutyl)amino)-3′-((3-(trifluoromethyl)-1,2,4-thiadiazol-5-yl)amino)-[1,1′-biphenyl]-2-carboxylic Acid] | 6.31 nM | <5 |
| CO[C@H]1CC[C@H](N(CC(C)C)c2ccc([C@H](C)CC(=O)O)cc2Nc2ccc(Cl)cn2)CC1 [Example 55, (R)-3-(3-((5-chloropyridin-2-yl)amino)-4-(isobutyl((1r,4R)-4-methoxycyclohexyl)amino)phenyl)butanoic Acid] | 3.16 nM | <5 |
| CC(C)CN(c1ccc([C@H](C)CC(=O)O)cc1Nc1ccc(Cl)cn1)C1CCOCC1 [Example 8, (R)-3-(3-((5-chloropyridin-2-yl)amino)-4-(isobutyl(tetrahydro-2H-pyran-4-yl)amino)phenyl)butanoic Acid] | 0.794 nM | <5 |
| CC(C)CN(c1ccc([C@H](C)CC(=O)O)cc1Nc1n[nH]c(C(F)(F)F)n1)C1CCCCC1 [Example 78, (R)-3-(4-(cyclohexyl(isobutyl)amino)-3-((5-(trifluoromethyl)-1H-1,2,4-triazol-3-yl)amino)phenyl)butanoic Acid] | 3.16 nM | <5 |

More lines, main results first:

| IC50 [2] | Structure (SMILES) | PBMC TOX PXC50 [1] |
| --- | --- | --- |
| 1580 nM | CC(C)CN(c1ccc([C@H](C)CC(=O)O)cc1Nc1n[nH]c(C#N)n1)[C@H]1CC[C@H](O)CC1 (racemic) [example 224, (3RS)-3-{3-[(5-cyano-1H-1,2,4-triazol-3-yl)amino]-4-[(2-methylpropyl)[(1rs&,4rs&)-4-hydroxycyclohexyl]amino]phenyl}butanoic acid] | <5 |
| 501 nM | CO[C@H]1CC[C@H](N(CC(C)C)c2ccc([C@H](C)CC(=O)O)cc2Nc2n[nH]c(C(N)=O)n2)CC1 (racemic) [example 223, (3RS)-3-{3-[(5-carbamoyl-1H-1,2,4-triazol-3-yl)amino]-4-[(2-methylpropyl)[(1rs&,4rs&)-4-methoxycyclohexyl]ami-no]phenyl}butanoic acid] | <5 |
| 1.26 nM | CC(C)CN(CCCCCN=[N+]=[N-])c1ccc([C@H](C)CC(=O)O)cc1Nc1nc(C(F)(F)F)ns1 [Example 94, (R)-3-(4-((5-azidopentyl) (isobutyl)amino)-3-((3-(trifluoromethyl)-1,2,4-thiadiazol-5-yl)amino)phenyl)butanoic Acid] | <4.3 |
| 7940 nM | CC(C)CN(c1ccc([C@H](C)CC(=O)O)cc1Nc1n[nH]c(C(N)=O)n1)[C@H]1CC[C@H](O)CC1 (racemic) [example 225, (3RS)-3-{3-[(5-carbamoyl-1H-1,2,4-triazol-3-yl)amino]-4-[(2-methylpropyl)[(1rs&,4rs&)-4-hydroxycyclohexyl]amino]phenyl}butanoic acid] | <5 |
| 50.1 nM | CC(C)CN(c1ccc(C(C)CC(=O)O)cc1Nc1nnc(C(=O)N(C)C)s1)C1CCCCC1 (stereo not shown) [example 244, 3-{4-[cyclohexyl(2-methylpropyl)amino]-3-{[5-(dimethylcarbamoyl)-1,3,4-thiadiazol-2-yl]amino}phenyl}butanoic acid] | 5.7 |
| 2.51 nM | CC(C)CN(CC(C)C)c1ccc([C@H](C)CC(=O)O)cc1Nc1nc(C(F)(F)F)c[nH]1 [Example 85, (R)-3-(4-(diisobutylamino)-3-((4-(trifluoromethyI)-1H-imidazol-2-yl)amino)phenyl)butanoic Acid] | <5 |
| 2000 nM | CC(C)CN(CC(C)C)c1ccc(C(C)CC(=O)O)cc1Nc1nnn(C)n1 (stereo not shown) [example 251, 3-{4-[bis(2-methylpropyl)amino]-3-[(2-methyl-2H-1,2,3,4-tetrazol-5-yl)amino]phenyl}butanoic acid] | <5 |
| 2510 nM | CC(C)CN(c1ccc([C@H](C)CC(=O)O)cc1Nc1ccc(C(N)=O)cn1)C1CCOCC1 [example 240, (3R)-3-{3-[(5-carbamoylpyridin-2-yl)amino]-4-[(2-methylpropyl)(oxan-4-yl)amino]phenyl}butanoic acid] | <5 |
| > 10000 nM | CC(C)CN(c1ccc([C@H](C)CC(=O)O)cc1Nc1nc(C(=O)NC2CC2)c[nH]1)C1CCOCC1 [example 236, (3R)-3-(3-{[4-(cyclopropylcarbamoyl)-1H-imidazol-2-yl]amino}-4-[(2-methylpropyl)(oxan-4-yl)amino]phenyl)butanoic acid] | <5 |
| 31.6 nM | CNC(=O)c1nnc(Nc2cc([C@H](C)CC(=O)O)ccc2N(CC(C)C)C2CCOCC2)s1 [example 257, (3R)-3-(3-{[5-(methylcarbamoyl)-1,3,4-thiadiazol-2-yl]amino}-4-[(2-methylpropyl)(oxan-4-yl)amino]phenyl)butanoic acid] | <5 |
| 25.1 nM | CC(C)CN(c1ccc([C@H](C)CC(=O)O)cc1Nc1ncc(Cl)cn1)C1CCOCC1 [example 231, (3R)-3-{3-[(5-chloropyrimidin-2-yl)amino]-4-[(2-methylpropyl)(oxan-4-yl)amino]phenyl}butanoic acid] | <5 |
